Reference: patent publication US20110020931A1, “PROLIFERATION PROMOTING AGENT FOR NEURAL STEM CELLS” (KYOWA HAKKO KIRIN CO., LTD., priority 2008, published 2011)

Assays:
Assay type in all cases: cell-based
[1] = system: Rat adult neural stem cell line ANSC-7 cells; assay: Test Example 1: Proliferation promoting activity on neural stem cells (1), Hoechst 33342 nucleus staining fluorescence; conditions: 96 hours culture, nucleus-stain fluorescence, read-out: proliferation promoting activity (relative value, negative control = 100%); for activity at 0.32 µM: 0.32 μmol/L; for activity at 1 µM: 1.0 μmol/L
Description: Rat adult neural stem cell line ANSC-7 cells prepared by the method described in the following Reference Example 1 were suspended in DMEM/F12 medium (manufactured by Invitrogen) supplemented with N-2 additives [5 μg/mL insulin (manufactured by Sigma), 100 μg/mL bovine apotransferrin (manufactured by Sigma), 6.3 ng/mL progesterone (manufactured by Sigma), 1.6 μg/mL putrescine (manufactured by Sigma) and 5.2 ng/mL sodium selenate (manufactured by Sigma)] and an antibiotics mixed liquid [0.05 U/mL penicillin and 0.05 μg/mL streptomycin (manufactured by Invitrogen)] (to be referred to as assay medium hereinafter), at a density of 1.7×10^5 cells/mL; inoculated at 0.1 mL in a 96 well plate (manufactured by Costar) of which surface was processed with polyornithine and laminin; and cultured overnight at 37° C. under an atmosphere of 5% CO2. Thereafter, 50 μl of the culture supernatant was removed, and 50 μl of a test compound which was serially diluted with the assay medium to 2 times of the final concentration or DMSO (negative control) was added to each well. After the culturing for 96 hours, 50 μl of the culture supernatant was removed, and 50 μl of a 15% neutral buffered formalin liquid (manufactured by Wako Pure Chemical Industries, Ltd.) cooled to be 4° C. was added to each well and allowed to stand for 1 hour. Thereafter, by washing twice using PBS containing 0.3% Triton X-100 (manufactured by Nacalai Tesque) (hereinafter TBST), 50 μl of Hoechst 33342 (manufactured by Nacalai Tesque) adjusted to 3.3 μmol/L with 5% skim milk solution diluted with PBS containing 0.5% Triton X-100 was added to each well and the nucleus was stained overnight at 4° C. in the dark. After washing twice with 100 μl/well of TBST and then once with PBS and subsequently soaking in 100 μl/well of PBS, fluorescence intensity of the nucleus-stained cells was measured using a fluorometer FDSS 6000 (Hamamatsu Photonics K.K.). By regarding the measured value of well to which the cells were not inoculated as 0%, and the measured value of negative control as 100%, relative values in the test compound addition group were calculated.
(§1) After putting a 7-week-old Sprague Dawley Rat to sleep by ether anesthesia and subsequent decapitation, the skull was cut open from the parietal region to extract the brain. Under a microscope, tissues including circumventricular region were isolated from the extracted brain by using ophthalmic scissors and tweezers. The tissues including circumventricular region were cut into fragments of about 1 mm^3 using ophthalmic scissors and scalpels and then subjected to 30 minutes of digestion reaction at 37° C. in 5 mL of Hanks' buffer containing 2.5 U/mL of papain, 250 U/mL of DNase (all manufactured by Worthington, Freehold, N.J.) and 1 U/mL of a neutral protease (Dispase, manufactured by Boehringer-Mannheim Corp.) (HBSS buffer, manufactured by Invitrogen). The mixture of cells and tissues obtained by the reaction was washed three times with DMEM (manufactured by Invitrogen) containing 10% fetal bovine serum (manufactured by Hyclone) and then dissolved in the DMEM containing 10% fetal bovine serum, followed by removing the undigested materials using a nylon mesh of 10 μm.
(§2) The thus obtained cells crude extract was cultured overnight on a culture dish of 10 cm, in an incubator of 37° C. using DMEM/F12 medium (manufactured by Invitrogen) containing 10% fetal bovine serum. On the next day, the medium was replaced with DMEM/F12 containing 1% of N-2 additives (manufactured by Invitrogen) and 20 ng/mL of FGF 2 (manufactured by Pepro Tech) and the culturing was started. Once in 3 days, half of the medium was replaced with new DMEM/F12 containing 1% of N-2 additives and 20 ng/mL of FGF 2 and the culturing was continued.
When a small colony consisted of small cells was formed, it was treated with 1% trypsin for 30 seconds to 1 minute, and the cells detached were harvested. […]

[2] = system: Rat adult neural stem cell line ANSC-7 cells; assay: Test Example 3: Proliferation promoting activity on neural stem cells (3), same manner as Test Example 2; conditions: 96 h; for activity at 3.2 µM: 3.2 μmol/L; for activity at 0.001 µM: 1 nmol/L; for activity at 0.01 µM: 10 nmol/L
Description: (§3) Rat adult neural tem cell line ANSC-7 cells prepared by the method described in the following Reference Example 1 were suspended in the assay medium at a density of 1.7×10^5 cells/mL; inoculated in 0.1 mL portion in a 96 well plate (manufactured by Costar) of which surface was processed with polyornithine and laminin; and cultured overnight at 37° C. under an atmosphere of 5% CO2. Thereafter, 50 μl of the culture supernatant was removed, and 50 μl of a test compound which was serially diluted with the assay medium to 2 times of the final concentration or DMSO (negative control) was added to each well. After the culturing for 96 hours, 10 μl per well of a viable cell counting reagent SF (manufactured by Nacalai Tesque) was added to the culture. After culturing at 37° C. for 3 hours in a 5% CO2 incubator and subsequent stirring for 1 minute, absorbance at 490 nm (control wavelength 655 nm) was measured using a microplate spectrophotometer Emax (manufactured by Molecular Device). By regarding the measured value of well to which the cells were not inoculated as 0%, and the measured value of negative control as 100%, relative values in the test compound addition group were calculated.
Each of the tests was carried out in the same manner as in Test Example 2.
as §1, §2
(§4) When a small colony consisted of small cells was formed, it was treated with 1% trypsin for 30 seconds to 1 minute, and the cells detached were harvested. The harvested cells were inoculated on a multiple well culture dish (manufactured by Fisher Scientific) which had been coated at room temperature overnight using 10 μg/mL of polyornithine (manufactured by Sigma) and at 37° C. overnight using 5 μg/mL of mouse EHS tumor-derived laminin (Becton Dickinson), and the culturing was continued.
(§5) By continuing the above-mentioned culturing, small cells having small protrusion and thickness were concentrated. The cells were used as adult neural stem cells in the above-mentioned tests (Test Examples 1 to 3).

[3] = system: Rat adult neural stem cell line ANSC-7 cells; assay: Test Example 2: Proliferation promoting activity on neural stem cells (2), viable cell counting reagent SF absorbance; conditions: 96 hours culture, absorbance 490 nm, read-out: proliferation promoting activity (relative value, negative control = 100%); for activity at 0.32 µM: 0.32 μmol/L; for activity at 1 µM: 1.0 μmol/L
Description: as §3, §1, §2, §4, §5

[4] = same manner as Test Example 2, read-out: proliferation promoting activity (relative value, negative control = 100%)

Structure (SMILES): C=C(CCC1(C)OC2OC3CC1C21CCC2C4(C)CCC(OC(C)=O)CC4CC4OC42C31)C(C)C (stereo not shown) [Compound A1]
- activity at 0.32 µM [1]: ≥ 160%

Structure (SMILES): C=C(CCC1(C)OC2OC3CC1C21CCC2C4(C)CCC(=O)CC4CC4OC42C31)C(C)C (stereo not shown) [Compound A2]
- activity at 0.32 µM [1]: ≥ 160%

Structure (SMILES): CC(C)C(C)CCC1(C)OC2OC3CC1C21CCC2C4(C)CCC(O)CC4CC4OC42C31 (stereo not shown) [Compound A3]
- activity at 0.32 µM [1]: ≥ 160%

Structure (SMILES): C=C(CCC1(C)OC2OC3CC1C21CCC2C4(C)CCC(O)CC4CCC2(O)C31)C(C)C (stereo not shown) [Compound A5]
- activity at 0.32 µM [1]: ≥ 160%

Structure (SMILES): CC(C)C(C)/C=C/C(C)C1CCC2/C(=C/C(=O)OC3(C)CCC(O)CC3=O)C(=O)CCC21C (stereo not shown) [Compound AA]
- activity at 3.2 µM [2, 4]: 120%

Structure (SMILES): C=C(CCC1(C)OC2OC3CC1C21CCC2C4(C)CCC(O)CC4CC4OC42C31)C(C)C (stereo not shown) [Compound A]
- activity at 0.32 µM [1]: ≥ 150%
- activity at 0.32 µM [3]: ≥ 130%

Structure (SMILES): CC(C)C(C)/C=C/C(C)C1CCC2/C(=C/C(=O)OC3CCC(C)(O)C(=O)C3)C(=O)CCC21C (stereo not shown) [Compound BB]
- activity at 3.2 µM [2, 4]: 120%

Structure (SMILES): C=C(CCC1(C)OC2OC3CC1C21CCC2C(=CCC4CC(O)CCC42C)C31)C(C)C (stereo not shown) [Compound B]
- activity at 1 µM [1]: ≥ 140%

Structure (SMILES): C=C(CCC(C)(O)C1CCC2C3=CCC4CC(O)CCC4(C)C3CCC21C)C(C)C (stereo not shown) [Compound C]
- activity at 0.32 µM [1]: ≥ 150%
- activity at 0.32 µM [3]: ≥ 130%

Structure (SMILES): C=C(CCC(=C)C1CC(O)C2C3=CCC4CC(O)CCC4(C)C3CCC12C)C(C)C (stereo not shown) [Compound D]
- activity at 1 µM [1]: ≥ 140%
- activity at 1 µM [3]: ≥ 130%

Structure (SMILES): C=C(CCC(C)C1CCC2C3=C(CCC21C)C1(C)CCC(O)CC1C(=O)O3)C(C)C (stereo not shown) [Compound E]
- activity at 0.32 µM [1]: ≥ 150%
- activity at 0.32 µM [3]: ≥ 130%

Structure (SMILES): C=C(CCC(C)C1CCC2C3=C(CCC21C)C1(C)CCC(O)CC1CC3=O)C(C)C (stereo not shown) [Compound F]
- activity at 1 µM [1]: ≥ 140%
- activity at 1 µM [3]: ≥ 130%

Structure (SMILES): C=C(CCC1(C)OC(=O)C23CCC4C5(C)CCC(O)CC5CC5OC54C2C(O)CC13)C(C)C (stereo not shown) [Compound H]
- activity at 1 µM [3]: ≥ 130%

Structure (SMILES): C=C(CCC(C)(O)C1CC(O)C2C3=CCC4CC(O)CCC4(C)C3CCC21C)C(C)C (stereo not shown) [Compound J]
- activity at 3.2 µM ([3]; 3.2 μmol/L): ≥ 125%

Structure (SMILES): C=C(CCC(=C)C1CC(O)C2C3=CCC4CC(=O)CCC4(C)C3CCC12C)C(C)C (stereo not shown) [Compound K]
- activity at 1 µM [3]: ≥ 130%

Structure (SMILES): C=C(CCC1(C)OC2OC3CC1C21CCC2C(=CC=C4CC(O)CCC42C)C31)C(C)C (stereo not shown) [Compound L]
- activity at 0.32 µM [3]: ≥ 130%

Structure (SMILES): COC(C)(C)/C=C/c1cccc2c3c([nH]c12)C(C)(C)C1CC24CCCN2CC1(C3)NC4=O (stereo not shown) [Compound M]
- activity at 0.32 µM ([2]; read-out: proliferation promoting activity (relative value, negative control = 100%)): 120%

Structure (SMILES): CC(C)=CC(=O)c1cccc2c3c([nH]c12)C(C)(C)C1CC24CCCN2CC1(C3)NC4=O (stereo not shown) [Compound N]
- activity at 1 µM ([2]; 1 μmol/L, same manner as Test Example 2, read-out: proliferation promoting activity (relative value, negative control = 100%)): 120%

Structure (SMILES): C=C(CCC(C)C1CCC2=C3OC(=O)C4CC(O)CCC4(C)C3CCC21C)C(C)C (stereo not shown) [Compound U]
- activity at 0.001 µM [2, 4]: ≥ 120%

Structure (SMILES): C=C(CCC(C)C1CC=C2C3=C(CCC21C)C1(C)CCC(O)CC1C(=O)O3)C(C)C (stereo not shown) [Compound V]
- activity at 0.001 µM [2, 4]: ≥ 120%

Structure (SMILES): C=C(CCC(C)C1CCC2C3C(=O)CC4CC(O)CCC4(C)C3CCC12C)C(C)C (stereo not shown) [Compound W]
- activity at 0.01 µM [2, 4]: ≥ 120%

Structure (SMILES): C=C(/C=C/C(C)C1CCC2C3C(=O)CC4CC(O)CCC4(C)C3CCC12C)C(C)C (stereo not shown) [Compound X]
- activity at 0.01 µM [2, 4]: ≥ 120%

Structure (SMILES): C=C(CCC(C)(O)C1CC(O)C2=C3C(O)CC4CC(O)CCC4(C)C3CCC21C)C(C)C (stereo not shown) [Compound Y]
- activity at 3.2 µM [2, 4]: 120%
